# Assay results as given in patent US6426349B1, “Substituted condensation products of N-benzyl-3-indenylacetamides with heterocyclic aldehydes for neoplasia” (Cell Pathway and the University of Arizona, priority 1997, dated 2002).
# Counter-ions that a name gives are not always drawn.
# Columns and labels:
# [1] = test system: SW-480 colon adenocarcinoma cells; assay: Apoptosis by DNA fragmentation (Cell Death Detection ELISA plus); format: cell-based, human; details: for DNA Fragmentation FS (100 μM): fold stimulation FS=ODmax/ODveh; for DNA Fragmentation FS (100 μM) / EC50: SW-480 cells, 48 hrs; for Apoptosis Level (Mean OD Value ± SD): DNA fragmentation, SW-480
# Protocol: Apoptosis was also measured based on the amount of fragmented DNA contained in cell lysates. Briefly, SW-480 colon adenocarcinoma cells were plated in 96-well microtitre plates (“MTP”) at a density of 10 K cells/well in 180 μl and were incubated for 24 hrs. Cells were then treated with 20 μl aliquots of appropriately diluted compound, and allowed to incubate for an additional 48 hrs.
# After the incubation, samples were prepared according to the following steps. The MTP was centrifuged (15 min., 1000 rpm) and the supernatant was carefully removed by fast inversion of the MTP. The cell pellets in each well were resuspended in 200 μl lysis buffer and incubated for 45 min. at room temperature to lyse the cells. The lysates were then centrifuged (15 min., 1000 rpm) and 20 μl aliquots of the supernatant (=cytoplasmic fraction) were transferred into the streptavidin coated MTP for analysis. Care was taken not to shake the lysed pellets in the MTP (=cell nucleii containing high molecular weight, unfragmented DNA). Samples were analyzed immediately, because storage at 4C or −20C reduces the ELISA-signals.
# Samples were then processed according to a DNA fragmentation assay protocol, and dose-response curves were generated based on optical density readings. Quantification of DNA was done by a commercially available photometric enzyme-immunoassay manufactured by Mannheim-Boehringer under the name “Cell Death Detection ELISA^plus”. The assay is based on a quantitative sandwich-enzyme-immunoassay-principle using mouse monoclonal antibodies directed against DNA and histones, respectively. This allows the specific determination of mono and oligonucleosomes in the cytoplasmatic fraction of cell lysates. In brief, the assay procedure is as follows. The sample (cell-lysate, serum, culture-supematant etc.) is placed into a streptavidin-coated MTP. Subsequently, a mixture of anti-histone-biotin and anti-DNA-POD is followed by incubation for 2 hours. During the incubation period, the anti-histone antibody binds to the histone-component of the nucleosomes and simultaneously fixes the immunocomplex to the streptavidin-coated MTP via its biotinylation. Additionally, the anti-DNA-POD antibody reacts with the DNA component of the nucleosomes. After removal of unbound antibodies by a washing step, the amount of nucleosomes is quantified by the POD retained in the immunocomplex. POD is determined photometrically with ABTS® (2,2′-Azino-di[3-ethylbenzthiazolin-sulfonat])* as substrate.
# Fold stimulation (FS=ODmax/ODveh), an indicator of apoptotic response, was determined for each compound tested. EC50 values were determined either specifically by data analysis software, or by estimates based on the effective concentration range of each compound (ECR=min. effective dose-min. dose to peak effect). These FS and EC50 values for the tested compounds are listed above in Table 4.
# In addition, using the DNA fragmentation test above, a dose response for the compound of Example 1 was obtained.
# [2] = molecular target: T1, purified cyclooxygenase Type I (Ovis aries, UniProt P05979); assay: Cyclooxygenase (COX) inhibition, purified enzyme; format: biochemical; details: purified COX from ram seminal vesicles
# T1 construct: The COX was purified from ram seminal vesicles; from tissue; host or cells: ram seminal vesicles
# T1 sequence (P05979 25-600): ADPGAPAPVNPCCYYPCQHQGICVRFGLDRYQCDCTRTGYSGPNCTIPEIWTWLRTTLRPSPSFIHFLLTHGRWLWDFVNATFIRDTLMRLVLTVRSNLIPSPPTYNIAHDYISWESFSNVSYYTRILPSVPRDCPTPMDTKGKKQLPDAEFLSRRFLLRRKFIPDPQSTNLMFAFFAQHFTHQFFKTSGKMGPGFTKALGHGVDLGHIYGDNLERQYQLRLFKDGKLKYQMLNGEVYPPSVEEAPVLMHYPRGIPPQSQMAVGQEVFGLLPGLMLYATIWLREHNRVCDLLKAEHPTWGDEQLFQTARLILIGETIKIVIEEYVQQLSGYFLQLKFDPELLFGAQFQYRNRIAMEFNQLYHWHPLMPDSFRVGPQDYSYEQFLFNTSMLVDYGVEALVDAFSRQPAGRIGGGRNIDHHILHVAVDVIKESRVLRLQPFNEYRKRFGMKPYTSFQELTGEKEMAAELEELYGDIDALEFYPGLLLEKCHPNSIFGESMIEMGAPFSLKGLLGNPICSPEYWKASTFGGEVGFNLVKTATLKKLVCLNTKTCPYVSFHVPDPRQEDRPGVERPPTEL
# Protocol: COX catalyzes the formation of prostaglandins and thromboxane by the oxidative metabolism of arachidonic acid. The compound of Example 1 of this invention, as well as a positive control, (sulindac sulfide) were evaluated to determine whether they inhibited purified cyclooxygenase Type I (see Table 3 below).
# The compounds of this invention were evaluated for inhibitory effects on purified COX. The COX was purified from ram seminal vesicles, as described by Boopathy, R. and Balasubramanian, J., 239:371-377, 1988. COX activity was assayed as described by Evans, A. T., et al., “Actions of Cannabis Constituents on Enzymes Of Arachidonate Metabolism Anti-Inflammatory Potential,” Biochem. Pharmacol., 36:2035-2037, 1987. Briefly, purified COX was incubated with arachidonic acid (100 μM) for 2.0 min at 37° C. in the presence or absence of test compounds. The assay was terminated by the addition of TCA, and COX activity was determined by absorbance at 530 nm.
# [3] = test system: human colon carcinoma cell line, SW-480; assay: Sulforhodamine B (SRB) tumor cell growth inhibition assay; format: cell-based; details: SW480, 144 h, SW-480 cell line, six days continuous exposure
# Protocol: The compound of Example 1 was assayed for its growth inhibitory activity on the human colon carcinoma cell line, SW-480 obtained from ATCC (Rockville, Md.), to ascertain the degree of growth inhibition. Growth inhibition of this cell line is indicative of a benefit on precancerous lesions and neoplasms. The cell line and growth assay employed for such experiments are well characterized, and are used to evaluate the anti-neoplastic properties of NSAIDs. The assay is used by the United States National Cancer Institute in its screening program for new anti-cancer drugs.
# Drug stock solutions were made in 100% DMSO and were then diluted with RPMI media for cell culture testing. All drug solutions were prepared fresh on the day of testing. The cultured cells were obtained at passage #99 and grown in RPMI media supplemented with 5% fetal calf serum, and 2 mM glutamine, 100 U/ml penicillin, […] streptomycin, and 0.25 μg/ml amphotericin. The cultures were maintained in a humidified atmosphere of 95% air and 5% CO2 at 37° C. […]
# Tumor cell growth inhibition was assessed using the Sulforhodamine B (SRB) protein binding assay. […] The dye was then solubilized, and the optical density of the resulting solution was determined on a 96-well plate reader. […]
# For each experiment, an IC50 value was determined and used for comparative purposes. […]
# [4] = test system: HT-29 human colon carcinoma cells; assay: Apoptosis by morphology (acridine orange/ethidium bromide fluorescent microscopy); format: cell-based; details: HT-29 cells
# Protocol: Apoptosis was measured using an assay of cell death based on morphological characteristics of apoptotic cells (i.e., condensed chromatin). Drug preparation and cell culture conditions were the same as for the SRB assay described above, except that HT-29 human colon carcinoma cells were used. Confluent cultures were established in 12.5 cm^2 flasks by plating 0.5×10^6 cells/flask. The cultures were assayed for apoptosis by fluorescent microscopy following labeling with acridine orange and ethidium bromide. Floating and attached cells were collected by trypsinization and washed three times in PBS. One ml aliquots were centrifuged (3 g). The pellet was resuspended in 25 μl media and 1 μl of a dye mixture containing 100 μg/ml acridine orange and 100 μg/ml ethidium bromide prepared in PBS and mixed gently. Ten μl of the mixture was placed on a microscope slide and covered with a 22 mm^2 coverslip, was examined with 40x dry objectives under epillumination by filter combination.
# An observer blinded in regard to the identity of the samples scored at least 100 cells per sample. Apoptotic cells were identified by nuclear condensation of chromatin stained by the acridine orange or ethidium bromide.
smiles,measurement,setting,value
"CC1=C(CC(=O)NCc2ccccc2)c2cc(F)ccc2/C1=C\c1ccccn1 [Example 3, (Z)-5-Fluoro-2-Methyl-(2-Pyridinylidene)-3-(N-Benzyl)-Indenylacetamide]",DNA Fragmentation FS (100 μM),[1],8.5
"CC1=C(CC(=O)NCc2ccccc2)c2cc(F)ccc2/C1=C\c1ccncc1 [Example 38, (Z)-5-Fluoro-2-Methyl-(4-Pyridylidene)-3-(N-Benzyl) Indenylacetamide Hydrochloride]",EC50,[1],15 µM
"CC1=C(CC(=O)NCc2ccccc2)c2cc(F)ccc2/C1=C\c1ccnc2ccccc12 [Example 4, (Z)-5-Fluoro-2-Methyl-(4-Quinolinylidene)-3-(N-Benzyl)-Indenylacetamide]",DNA Fragmentation FS (100 μM),[1],3.9
"CC1=C(CC(=O)NCc2ccccc2)c2cc(F)ccc2/C1=C\c1ccncc1 [Example 1, (Z)-5-Fluoro-2-Methyl-(4-Pyridinylidene)-3-(N-Benzyl)-Indenylacetamide]",inhibition at 100 µM,[2],< 25%
same,IC50,[3],0.724 µM
same,Morphology % Apoptotic Cells (1 μM),[4],88%
same,DNA Fragmentation FS (100 μM),[1],4.2
same,EC50,"[1]; Homo sapiens, SW480",29 µM
same,Apoptosis Level (Mean OD Value ± SD),[1]; dose 0.5 μM,0.186 ± 0.008
same,Apoptosis Level (Mean OD Value ± SD),[1]; dose 1.0 μM,0.207 ± 0.061
same,Apoptosis Level (Mean OD Value ± SD),[1]; dose 5.0 μM,0.208 ± 0.073
same,Apoptosis Level (Mean OD Value ± SD),[1]; dose 10 μM,0.296 ± 0.050
same,Apoptosis Level (Mean OD Value ± SD),[1]; dose 50 μM,0.500 ± 0.048
same,Apoptosis Level (Mean OD Value ± SD),[1]; dose 100 μM,0.633 ± 0.053
same,Apoptosis Level (Mean OD Value ± SD),[1]; dose 500 μM,0.659 ± 0.012
"CC1=C(CC(=O)NCc2ccccc2)c2cc(F)ccc2/C1=C\c1cccnc1 [Example 2, (Z)-5-Fluoro-2-Methyl-(3-Pyridinylidene)-3-(N-Benzyl)-Indenylacetamide]",DNA Fragmentation FS (100 μM),[1],5.4
